SMILES strings stand for the structures.

The nature of the first data set: Measurement of Log P values by HPLC on reversed phase columns (EEC directive 79/831 Annex V.A8). It is filed as physicochemical. The following applies: LogP. Here is the method:
Measurement of Log P values as provided herein was performed according to EEC directive 79/831 Annex V.A8 by HPLC (High Performance Liquid Chromatography) on reversed phase columns with the following methods: • ^[a] Log P value is determined by measurement of LC-UV, in an acidic range, with 0.1% formic acid in water and acetonitrile as eluent (linear gradient from 10% acetonitrile to 95% acetonitrile). • ^[b] Log P value is determined by measurement of LC-UV, in a neutral range, with 0.001 molar ammonium acetate solution in water and acetonitrile as eluent (linear gradient from 10% acetonitrile to 95% acetonitrile). • ^[c] Log P value is determined by measurement of LC-UV, in an acidic range, with 0.1% phosphoric acid and acetonitrile as eluent (linear gradient from 10% acetonitrile to 95% acetonitrile).
If more than one Log P value is available within the same method, all the values are given and separated by “+”.
Calibration was done with straight-chain alkan2-ones (with 3 to 16 carbon atoms) with known Log P values (measurement of Log P values using retention times with linear interpolation between successive alkanones). Lambda-max-values were determined using UV-spectra from 200 nm to 400 nm and the peak values of the chromatographic signals
The compound `Cc1ncc(Oc2cccc(Br)c2)c(C(=O)O)n1` [Compound 1-04] gave a chromatographic logP of 2.15.
On the same count and under the same terms, in the case of `Cc1ccc(C[C@H](CCl)NC(=NO)c2nc(C)ncc2Oc2cccc(Cl)c2F)c(Cl)c1` (racemic) [Compound 11-06] it was 4.16; in that of `COc1ccc(C[C@H](CCl)NC(=O)c2nc(C)ncc2Oc2cccc(C(F)(F)F)c2)c(Cl)c1` (racemic) [Compound 10-01], 4.47.
Still for that read-out and setting: the same measure for `COC(=N)c1nc(C)ncc1Oc1cccc(Cl)c1` [Compound 20-01, methyl 5-(3-chlorophenoxy)-2-methyl-pyrimidine-4-carboximidate]: 2.19.
The same measure, in the same setting: the same measure for `Cc1ccc(C[C@H](CCl)NC(=O)c2nc(C)ncc2Oc2cccc(C3CC3)c2F)c(C)c1` (racemic) [Compound 10-11]: 4.86; for `COc1ccc(C[C@H](CCl)NC(=NO)c2nc(C)ncc2Oc2cccc(C(F)(F)F)c2)c(Cl)c1` (racemic) [Compound 11-01]: 4.01; for `Cc1ccc(C[C@H](CCl)NC(=O)c2nc(C)ncc2Oc2cccc(C3CC3)c2F)c(Cl)c1` (racemic) [Compound 10-03]: 4.93.
For `CSc1ncc(Br)c(C(=O)N[C@@H](CON)Cc2ccc(C)cc2Cl)n1` (racemic) [Compound 4-03], the chromatographic logP turned out to be 2.58.
As to `O=C(O)c1nc(C2CC2)ncc1Oc1cccc(C(F)(F)F)c1` [Compound 1-02, 2-cyclopropyl-5-[3-(trifluoromethyl)phenoxy]pyrimidine-4-carboxylic acid], the chromatographic logP is 2.49.
`Cc1ccc(C[C@H](N)CC(N)=O)c(C)c1` (racemic) [Compound 9-04] showed a chromatographic logP of 0.69.
`Cc1ncc(Oc2cccc(C(F)(F)F)c2)c(C(=O)N[C@@H](CCl)Cc2ccc(Br)cc2C)n1` (racemic) [Compound 10-06] yielded a chromatographic logP of 4.86.
`Cc1ncc(Oc2cccc(C(F)(F)F)c2)c(C(=NO)N[C@@H](CCl)Cc2ccc(C(F)F)cc2Cl)n1` (racemic) [Compound 11-11]: the chromatographic logP came out at 4.02.
As for `Cc1ncc(Oc2cccc(C(F)(F)F)c2)c(C(=NO)N[C@@H](CCl)Cc2csc(C(F)(F)F)c2)n1` (racemic) [Compound 11-08], the chromatographic logP was determined as 4.12.
On the same count and under the same terms, in the case of `Cc1ncc(Oc2cccc(Cl)c2F)c(C(=O)O)n1` [Compound 1-08] it was 1.91; in that of `Cc1ncc(Oc2cccc(C(F)(F)F)c2)c(C(=O)N[C@@H](CCl)Cc2ccc(OC(F)F)cc2Cl)n1` (racemic) [Compound 10-08], 4.51; in that of `CSc1ncc(Br)c(C2=NOC[C@@H](Cc3ccc(C)cc3C)N2)n1` (racemic) [Compound 7-02], 4.05.
`Cc1ccc(C[C@H](CCl)NC(=O)c2nc(C)ncc2Oc2cccc(Cl)c2)c(Cl)c1` (racemic) [Compound 10-04] displayed a chromatographic logP of 4.61.
Same read-out and setting: the same measure for `Cc1ccc(CC(CCl)NC(=NO)c2nc(C)ncc2Br)c(C)c1` (racemic) [Compound 13-01, 5-bromo-N-[(2RS)-1-chloro-3-(2,4-dimethylphenyl)propan-2-yl]-N′-hydroxy-2-methylpyrimidine-4-carboximidamide]: 3.26.
The same measure, in the same setting: in the case of `Cc1ccc(C[C@H](CCl)NC(=NO)c2nc(C)ncc2Oc2cccc(C3CC3)c2F)c(Cl)c1` (racemic) [Compound 11-03] it was 4.62.
Same read-out and setting: the same measure for `Cc1ccc(C[C@H](CCl)NC(=NO)c2nc(C)ncc2Oc2cccc(C(F)(F)F)c2)c(Cl)c1` (racemic) [Compound 11-02]: 4.31; for `Cc1ncc(Oc2cccc(Cl)c2)c(C(N)=NOCC(=O)c2ccc3c(c2)OCCO3)n1` [Compound 19-02]: 3.12; for `Cc1ccc(C[C@H](CCl)NC(=O)c2nc(C)ncc2Oc2cccc(C(F)(F)F)c2)c(Cl)c1` (racemic) [Compound 10-02]: 4.74.
As for `Cc1ncc(Oc2cccc(Cl)c2)c(C(N)=NO[C@H](F)C(=O)c2ccc(Cl)cc2)n1` (racemic) [Compound 19-04], the chromatographic logP is 3.4.
As to `Cc1ccc(CC(CCl)NC(=O)c2nc(C)ncc2Br)c(C)c1` (racemic) [Compound 12-01, 5-bromo-N-[(2RS)-1-chloro-3-(2,4-dimethylphenyl)propan-2-yl]-2-methyl-pyrimidine-4-carboxamide], the chromatographic logP was 3.66.
Still for that read-out and setting: the same measure for `Cc1ncc(Oc2cccc(C(F)(F)F)c2)c(C(=O)N[C@@H](CCl)Cc2ccc(C(F)F)cc2Cl)n1` (racemic) [Compound 10-10]: 4.37; for `CSc1ncc(Br)c(C(=O)N[C@@H](CON)Cc2ccc(C)cc2C)n1` (racemic) [Compound 6b-01]: 2.49.
Turning to `Cc1ccc(C[C@H](N)CCN)c(C)c1` (racemic) [Compound 9-06], the chromatographic logP stood at 0.23.
Compound `Cc1ncc(Oc2cccc(C3CC3)c2F)c(C(=O)O)n1` [Compound 1-07] yielded a chromatographic logP of 2.2.
The same measure, in the same setting: in the case of `Cc1ncc(Oc2cccc(Cl)c2)c(C#N)n1` [Compound 16-01] it was 3.07; in that of `CSc1ncc(Br)c(C(=O)N[C@@H](CON2C(=O)c3ccccc3C2=O)Cc2ccc(C)cc2C)n1` (racemic) [Compound 6a-01], 4.55; in that of `Cc1ccc(CC2CCN=C(c3nc(C)ncc3Oc3cccc(Cl)c3)N2)c(C)c1` (racemic) [Compound I-022, 5-(3-chlorophenoxy)-2-methyl-4-[(6RS)-6-[(2,4-dimethylphenyl)methyl]-1,4,5,6-tetrahydropyrimidin-2-yl]pyrimidine], 2.59.
On the same count and under the same terms, the same measure for `Cc1ccc(C[C@H](CCl)NC(=O)c2nc(C)ncc2Oc2cccc(Cl)c2F)c(Cl)c1` (racemic) [Compound 10-05]: 4.7.
Still for that read-out and setting: the same measure for `Cc1ccc(CC(CON)NC(=O)c2nc(C3CC3)ncc2Oc2cccc(C(F)(F)F)c2)c(C)c1` (racemic) [Compound 4-01, N-[(2RS)-1-(aminooxy)-3-(2,4-dimethylphenyl)propan-2-yl]-2-cyclopropyl-5-[3-(trifluoromethyl)phenoxy]pyrimidine-4-carboxamide]: 3.7; for `Cc1ccc(C[C@H](CCl)NC(=NO)c2nc(C)ncc2Oc2cccc(Cl)c2)c(Cl)c1` (racemic) [Compound 11-05]: 4.28; for `Cc1ccc([C@H](N)CC(N)=O)c(C)c1` (racemic) [Compound 9-05]: 0.55.
As for `Cc1ccc(C[C@H](CCl)NC(=NO)c2nc(C)ncc2Oc2cccc(C3CC3)c2F)c(C)c1` (racemic) [Compound 11-04], the chromatographic logP was determined as 4.51.
For the compound `CSc1ncc(Br)c(C2=NOC[C@@H](Cc3ccc(C)cc3Cl)N2)n1` (racemic) [Compound 7-03], the chromatographic logP stood at 4.08.
Same read-out and setting: in the case of `C#Cc1cccc(Oc2cnc(C)nc2C(=O)N[C@@H](CON2C(=O)c3ccccc3C2=O)Cc2ccc(C)cc2C)c1` (racemic) [Compound 3-02] it was 4.41; in that of `Cc1ncc(Oc2cccc(C(F)(F)F)c2)c(C(=O)N[C@@H](CCl)Cc2csc(C(F)(F)F)c2)n1` (racemic) [Compound 10-07], 4.55; in that of `Cc1ncc(Oc2cccc(Cl)c2)c(C(N)=NOCC(=O)c2ccc3c(c2)CCC3)n1` [Compound 19-01], 4.15.
Still for that read-out and setting: the same measure for `Cc1ncc(Oc2cccc(Cl)c2)c(C(N)=NOC(C)(C)C(=O)c2ccc(F)cc2F)n1` [Compound 19-03]: 3.41; for `Cc1ncc(Oc2cccc(Cl)c2)c(C(=O)O)n1` [Compound 1-03]: 2.
On the same count and under the same terms, the same measure for `C#Cc1cccc(Oc2cnc(C)nc2C(=O)N[C@@H](CON)Cc2ccc(C)cc2C)c1` (racemic) [Compound 4-02]: 2.53; for `Cc1ccc(CC2CON=C(c3nc(C)ncc3Br)N2)c(C)c1` (racemic) [Compound 7-01, (5RS)-3-(5-bromo-2-methylpyrimidin-4-yl)-5-(2,4-dimethylbenzyl)-5,6-dihydro-4H-1,2,4-oxadiazine]: 3.05.
`Cc1ncc(Oc2cccc(Cl)c2)c(C2=NOC(C)(C)[C@@H](c3ccc(F)cc3F)N2)n1` (racemic) [Compound I-035]: the chromatographic logP turned out to be 3.84.

The same data set, now with this note: method [a]: LC-UV, acidic range, 0.1% formic acid in water and acetonitrile as eluent; read-out: LogP.
With `N[C@H](CCl)Cc1ccc(SC(F)(F)F)cc1` (racemic) [Compound 9-02], the chromatographic logP worked out at 1.68.
With `Cc1ncc(Oc2cccc(C(F)(F)F)c2)c(C2=NOCC(Cc3ccc(C#C[Si](C)(C)C)cc3C)N2)n1` (racemic) [Compound I-010, trimethyl-[2-[3-methyl-4-[[(5RS)-3-[2-methyl-5-[3-(trifluoro-methyl)phenoxy]pyrimidin-4-yl]-5,6-dihydro-4H-1,2,4-oxadiazin-5-yl]methyl]phenyl]ethynyl]silane], the chromatographic logP was 5.79.
Turning to `N[C@H](CCl)Cc1csc(C(F)(F)F)c1` (racemic) [Compound 9-03], the chromatographic logP turned out to be 1.29.

The data set is the same for the next values; noted with them: reversed phase HPLC column, method [a]: LC-UV, acidic range, 0.1% formic acid in water and acetonitrile as eluent; read-out: LogP.
`Cc1ccc(C[C@H](N)CON2C(=O)c3ccccc3C2=O)c(C)c1` (racemic) [Compound 2-01]: the chromatographic logP is 1.55.

(Values after patent US12565489B2, “Heterocyclyl pyrimidines and triazines as novel fungicides” (Bayer Aktiengesellschaft, priority 2020, dated 2026).)
